Measured values published in ChEMBL document CHEMBL3853273, “Multi-target screening mines hesperidin as a multi-potent inhibitor: Implication in Alzheimer's disease therapeutics” (Eur J Med Chem, 2016).
Activity calls are given as the source filed them. The rule behind the calls is not given here.

Key:
[1] = Antioxidant activity of the compound assessed as inhibition of fenton reaction-induced DNA strand cleavage of plasmid pcDNA Hismyc B4 after 1 hr by ethidium bromide staining-based agarose gel electrophoresis; type: functional
[2] = target: Beta-secretase 1 (Homo sapiens) (UniProt P56817); experiment: Binding affinity to BACE1 (unknown origin) in acetate buffer at pH 4.8 at 0.25 to 5 uM by steady state spectrofluorimeter
Beta-secretase 1 (Homo sapiens), sequence (P56817 whole entry, the tested form may be a part): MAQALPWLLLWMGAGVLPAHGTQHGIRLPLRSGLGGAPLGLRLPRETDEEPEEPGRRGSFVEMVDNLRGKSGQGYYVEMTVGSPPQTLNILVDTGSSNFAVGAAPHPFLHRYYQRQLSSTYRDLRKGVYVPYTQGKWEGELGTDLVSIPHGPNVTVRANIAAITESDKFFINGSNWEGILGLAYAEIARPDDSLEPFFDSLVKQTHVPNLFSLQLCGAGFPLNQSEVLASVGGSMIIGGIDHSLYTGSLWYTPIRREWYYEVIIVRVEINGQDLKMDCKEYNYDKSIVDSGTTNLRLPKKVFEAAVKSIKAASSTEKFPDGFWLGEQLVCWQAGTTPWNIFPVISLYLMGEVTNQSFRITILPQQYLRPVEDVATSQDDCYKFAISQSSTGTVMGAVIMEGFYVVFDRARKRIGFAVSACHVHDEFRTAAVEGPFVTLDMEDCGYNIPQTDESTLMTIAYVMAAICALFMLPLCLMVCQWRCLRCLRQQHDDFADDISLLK

[3] = target: Beta-secretase 1 (Homo sapiens) (UniProt P56817); experiment: Binding affinity to BACE1 (unknown origin) in acetate buffer at pH 4.8 at 250 nM by steady state spectrofluorimeter
[4] = target: Beta-secretase 1 (Homo sapiens) (UniProt P56817); experiment: Binding affinity to BACE1 (unknown origin) in PBS at pH 7.4 up to 10 uM by steady state spectrofluorimeter
[5] = target: Beta-secretase 1 (Homo sapiens) (UniProt P56817); experiment: Binding affinity to BACE1 (unknown origin) in acetate buffer at pH 4.8 assessed as increase in lifetime species of excited tryptophan in active site at 5 uM by time-resolved fluorescence spectroscopy relative to control
[6] = target: Beta-secretase 1 (Homo sapiens) (UniProt P56817); experiment: Binding affinity to BACE1 (unknown origin) by fluorescence titration method
[7] = target: Beta-secretase 1 (Homo sapiens) (UniProt P56817); experiment: Inhibition of BACE1 (unknown origin) at 500 nM incubated for 2 hrs by FRET assay relative to control
[8] = target: Amyloid-beta precursor protein (Homo sapiens) (UniProt P05067); experiment: Inhibition of amyloid beta (25 to 35 residues) (unknown origin) aggregation at 20 uM incubated for 3 days by intrinsic flavonoid fluorescence assay
Amyloid-beta precursor protein (Homo sapiens), sequence (P05067 whole entry, the tested form may be a part): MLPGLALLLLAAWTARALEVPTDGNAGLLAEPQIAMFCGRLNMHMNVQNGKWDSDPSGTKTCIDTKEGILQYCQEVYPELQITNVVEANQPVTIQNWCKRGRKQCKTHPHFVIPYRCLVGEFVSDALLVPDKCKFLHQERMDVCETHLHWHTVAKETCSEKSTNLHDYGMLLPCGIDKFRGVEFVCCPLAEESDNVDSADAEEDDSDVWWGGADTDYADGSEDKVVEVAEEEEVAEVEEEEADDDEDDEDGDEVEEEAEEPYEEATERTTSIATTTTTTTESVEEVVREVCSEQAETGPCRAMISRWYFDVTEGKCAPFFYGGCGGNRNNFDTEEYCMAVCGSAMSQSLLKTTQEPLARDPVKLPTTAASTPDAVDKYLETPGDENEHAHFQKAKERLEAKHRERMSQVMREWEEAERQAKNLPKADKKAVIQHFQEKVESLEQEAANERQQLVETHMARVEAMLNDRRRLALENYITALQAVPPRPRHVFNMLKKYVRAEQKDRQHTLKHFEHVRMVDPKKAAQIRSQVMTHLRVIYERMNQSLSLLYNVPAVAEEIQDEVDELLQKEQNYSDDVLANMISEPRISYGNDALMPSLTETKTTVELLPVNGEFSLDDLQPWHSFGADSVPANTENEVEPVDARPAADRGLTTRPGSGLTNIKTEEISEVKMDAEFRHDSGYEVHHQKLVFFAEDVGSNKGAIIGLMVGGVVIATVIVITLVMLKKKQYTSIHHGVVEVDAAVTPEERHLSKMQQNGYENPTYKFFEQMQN

[9] = target: Amyloid-beta precursor protein (Homo sapiens) (UniProt P05067); experiment: Inhibition of amyloid beta (25 to 35 residues) (unknown origin) aggregation at 20 uM incubated for 3 days by 8-anilino-1-naphthalene-based fluorescence spectrophotometric method
[10] = target: Amyloid-beta precursor protein (Homo sapiens) (UniProt P05067); experiment: Inhibition of amyloid beta (25 to 35 residues) (unknown origin) aggregation at 20 uM incubated for 3 days by thioflavin T-based fluorescence spectrophotometric method
[11] = target: Amyloid-beta precursor protein (Homo sapiens) (UniProt P05067); experiment: Inhibition of amyloid beta (25 to 35 residues) (unknown origin) aggregation at 10 uM incubated for 3 days by thioflavin T-based fluorescence spectrophotometric method relative to control
[12] = target: Amyloid-beta precursor protein (Homo sapiens) (UniProt P05067); experiment: Inhibition of amyloid beta (25 to 35 residues) (unknown origin) aggregation at 100 uM incubated for 7 days by atomic force microscopic method
[13] = Antioxidant activity of the compound assessed as ABTS free radical scavenging activity; type: functional
[14] = Antioxidant activity of the compound assessed as inhibition of fenton reaction-induced DNA strand cleavage of plasmid pcDNA Hismyc B4 at 250 uM after 1 hr by ethidium bromide staining-based agarose gel electrophoresis; type: functional

Cc1c(C)c2c(c(C)c1O)CCC(C)(C(=O)O)O2 (stereo not given)
inhibition [1]: Active

COc1ccc([C@@H]2CC(=O)c3c(O)cc(O[C@@H]4O[C@H](CO[C@@H]5O[C@@H](C)[C@H](O)[C@@H](O)[C@H]5O)[C@@H](O)[C@H](O)[C@H]4O)cc3O2)cc1O [HESPERIDIN]
Activity [2]: Active
Activity [3]: Active
Activity [4]: Active
fold change (FC) [5]: 2.5
K [6]: 302000
inhibition [7]: 100%
inhibition [8]: Active
inhibition [9]: Active
inhibition [10]: Active
inhibition [11]: 40%
inhibition [12]: Active
Activity [13]: Dose-dependent effect
IC50 [13]: 16.5 µM
inhibition [14]: Active
